Experimental data as given in PubChem BioAssay AID256 (DTP/NCI, 2004).
Inconclusive results and toxic doses are left out. Rule for the calls: active = survival T/C of 150% or more; inactive = T/C below 125% in these data.

Test system: CD2F1 mice, L1210 leukemia ip, survival T/C
Test: NCI In Vivo Anticancer Drug Screen. Data for tumor model L1210 Leukemia (intraperitoneal) in CD2F1 (CDF1) mice
Conditions: higher = longer survival
In short: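 Antitumor effect is scored in animals hosting a serially transplanted tumor. Values compare compound-dosed animals against vehicle-only controls as a simple quotient.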

[1] = endpoint: mean survival time, dose: 100.0 mg/kg/injection, schedule: Q04DX003 (ip), vehicle: saline with Tween-80
[2] = endpoint: mean survival time, dose: 200.0 mg/kg/injection, schedule: Q04DX003 (ip), vehicle: saline with Tween-80
[3] = endpoint: mean survival time, dose: 400.0 mg/kg/injection, schedule: Q04DX003 (ip), vehicle: saline with Tween-80

Measured: T/C

CCOC(=O)C(=CCBr)C(=O)OCC
inactive: endpoint: mean survival time, dose: 1.56 mg/kg/injection, schedule: Q01DX009 (ip), vehicle: other 100 % of control | endpoint: mean survival time, dose: 3.13 mg/kg/injection, schedule: Q01DX009 (ip), vehicle: other 100 % of control | endpoint: mean survival time, dose: 6.25 mg/kg/injection, schedule: Q01DX009 (ip), vehicle: other 107 % of control | endpoint: mean survival time, dose: 12.5 mg/kg/injection, schedule: Q01DX009 (ip), vehicle: other 100 % of control | endpoint: mean survival time, dose: 25.0 mg/kg/injection, schedule: Q01DX009 (ip), vehicle: other 102 % of control

CCN(CC)CCN(C)N=Nc1ccccc1C(=O)NN
inactive: endpoint: mean survival time, dose: 72.0 mg/kg/injection, schedule: Q01DX001 (ip), vehicle: saline 105 % of control | endpoint: mean survival time, dose: 145.0 mg/kg/injection, schedule: Q01DX001 (ip), vehicle: saline 100 % of control

NNC(=O)CC(O)(C1CC1)C1CC1
inactive: endpoint: mean survival time, dose: 100.0 mg/kg/injection, schedule: Q04DX002 (ip), vehicle: saline 112 % of control | endpoint: mean survival time, dose: 200.0 mg/kg/injection, schedule: Q04DX002 (ip), vehicle: saline 96 % of control | endpoint: mean survival time, dose: 400.0 mg/kg/injection, schedule: Q04DX002 (ip), vehicle: saline 100 % of control

CC1CCC=C2C(=O)C3OC3C(C(C)(C)O)C21C (stereo unspecified)
inactive: endpoint: mean survival time, dose: 100.0 mg/kg/injection, schedule: Q04DX003 (ip), vehicle: acetone 93 % of control | endpoint: mean survival time, dose: 200.0 mg/kg/injection, schedule: Q04DX003 (ip), vehicle: acetone 88 % of control | endpoint: mean survival time, dose: 400.0 mg/kg/injection, schedule: Q04DX003 (ip), vehicle: acetone 88 % of control

Cc1cccc(C)c1NC(=S)NNC(=O)NNC(=S)Nc1c(C)cccc1C
inactive: endpoint: mean survival time, dose: 100.0 mg/kg/injection, schedule: Q01DX009 (ip), vehicle: saline with Tween-80 95 % of control | endpoint: mean survival time, dose: 200.0 mg/kg/injection, schedule: Q01DX009 (ip), vehicle: saline with Tween-80 95 % of control | endpoint: mean survival time, dose: 400.0 mg/kg/injection, schedule: Q01DX009 (ip), vehicle: saline with Tween-80 105 % of control

NCC(=O)Nc1ccccc1
inactive: endpoint: mean survival time, dose: 100.0 mg/kg/injection, schedule: Q01DX009 (ip), vehicle: saline 103 % of control | endpoint: mean survival time, dose: 200.0 mg/kg/injection, schedule: Q01DX009 (ip), vehicle: saline 113 % of control | endpoint: mean survival time, dose: 400.0 mg/kg/injection, schedule: Q01DX009 (ip), vehicle: saline 97 % of control

OCCNCc1ccc(OCc2ccccc2)c(OCc2ccccc2)c1
inactive: endpoint: median survival time, dose: 50.0 mg/kg/injection, schedule: Q04DX003 (ip), vehicle: saline with Tween-80 90 % of control | endpoint: median survival time, dose: 100.0 mg/kg/injection, schedule: Q04DX003 (ip), vehicle: saline with Tween-80 90 % of control

CCOc1nc2nc[nH]c(=O)c2cc1C#N
inactive: endpoint: mean survival time, dose: 12.5 mg/kg/injection, schedule: Q04DX002 (ip), vehicle: saline with Tween-80 90 % of control | endpoint: mean survival time, dose: 25.0 mg/kg/injection, schedule: Q04DX002 (ip), vehicle: saline with Tween-80 93 % of control | endpoint: mean survival time, dose: 50.0 mg/kg/injection, schedule: Q04DX002 (ip), vehicle: saline with Tween-80 104 % of control | endpoint: mean survival time, dose: 100.0 mg/kg/injection, schedule: Q01DX001 (ip), vehicle: saline with Tween-80 107 % of control | endpoint: mean survival time, dose: 200.0 mg/kg/injection, schedule: Q01DX001 (ip), vehicle: saline with Tween-80 95 % of control

CCOC(=O)c1ccc(N2C(=O)C=CC2=O)cc1
inactive: endpoint: mean survival time, dose: 12.5 mg/kg/injection, schedule: Q01DX009 (ip), vehicle: saline 97 % of control

O=C(O)C1(c2ccccc2)CC1
inactive: endpoint: mean survival time, dose: 100.0 mg/kg/injection, schedule: Q01DX009 (ip), vehicle: saline sonified 88 % of control | [1] 97 % of control | endpoint: mean survival time, dose: 200.0 mg/kg/injection, schedule: Q01DX009 (ip), vehicle: saline sonified 92 % of control | [2] 97 % of control | endpoint: mean survival time, dose: 400.0 mg/kg/injection, schedule: Q01DX009 (ip), vehicle: saline sonified 94 % of control | [3] 110 % of control

CCOC(=O)c1ncn(C2OC(COC(=O)c3ccccc3)C(OC(=O)c3ccccc3)C2OC(=O)c2ccccc2)c1C (stereo unspecified)
inactive: endpoint: median survival time, dose: 48.9 mg/kg/injection, schedule: Q01DX005 (ip), vehicle: saline with Tween-80 98 % of control | endpoint: median survival time, dose: 97.8 mg/kg/injection, schedule: Q01DX005 (ip), vehicle: saline with Tween-80 100 % of control | endpoint: median survival time, dose: 195.6 mg/kg/injection, schedule: Q01DX005 (ip), vehicle: saline with Tween-80 90 % of control

O=C(/C=C/c1ccc(Cl)c(Cl)c1)c1ccccc1
inactive: endpoint: mean survival time, dose: 50.0 mg/kg/injection, schedule: Q01DX009 (ip), vehicle: Klucel (hydroxypropylcellulose) (HPC) 105 % of control | endpoint: mean survival time, dose: 100.0 mg/kg/injection, schedule: Q01DX009 (ip), vehicle: Klucel (hydroxypropylcellulose) (HPC) 98 % of control

COc1ccc(/C=N\N2C(=O)/C(=C\c3ccc(OC)cc3)SC2=S)cc1
inactive: [1] 97 % of control | [2] 93 % of control | [3] 89 % of control
